{"source": "patent US20050019854A1", "about": "“Novel method for screening inhibitors of the linkage between the neuronal nitric oxide synthase associated protein and the protein inhibiting neuronal nitric oxide synthase” (priority 2001, published 2005)", "key": {"[1]": {"test_system": "islets of Langerhans of Zucker (fa/fa) rats", "assay": "Glucose-induced insulin secretion in isolated islets of Zucker (fa/fa) rats (Example 4)", "type": "cell-based, rat", "conditions": "2 g/L glucose; for reduction of the insulin response: 1 hour", "description": "The islets of Langerhans of Zucker (fa/fa) rats are isolated using the collagenase digestion technique of Lacy et al. (Diabetes, 1967). After isolation, the islets are stabilized in Krebs-Ringer containing 0.75 g/L glucose for 45 minutes at 37° C. Groups of three islets are then incubated in Krebs-Ringer with 2 g/L glucose containing increasing concentrations of the molecule C24H18N4O5S (20-100 μM) for 1 hour at 37° C. The liquid supernatant is then recovered and insulin secretion measured by radioimmunology (see FIG. 8)."}, "[2]": {"molecular_target": "T1, binding of the PIN to the nNOS (Rattus norvegicus, UniProt P63170)", "T1 construct": "catalogue number not given; host or cells: PIN: E. coli BL21 (DE3)", "T1 sequence (P63170 whole entry)": "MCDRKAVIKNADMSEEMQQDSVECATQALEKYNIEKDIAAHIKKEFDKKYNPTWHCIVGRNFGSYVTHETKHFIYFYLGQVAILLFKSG", "assay": "ELISA: inhibition of the binding of GST-PIN to immobilized nNOS (Example 2, first method)", "conditions": "peptide 50 μg/ml"}, "PIN": {"molecular_target": "T2, PIN (Rattus norvegicus, UniProt P63170)", "T2 construct": "GST (N, cleaved yes); made in house; host or cells: E. coli BL21 (DE3), vector pGEX-2T", "T2 sequence (P63170 whole entry)": "as above", "assay": "Surface plasmon resonance analysis of PIN binding to immobilized nNOS peptides (Example 1)"}, "[3]": {"molecular_target": "T1, binding of the PIN to the nNOS", "assay": "Surface plasmon resonance analysis of inhibition of PIN binding to immobilized nNOS (Example 3)", "conditions": "for inhibition of the binding of the PIN to the nNOS: SPR"}, "[4]": {"molecular_target": "T3, GST-PIN (PIN with a glutathione S-transferase tag in the N-terminal position) (rat, UniProt P63170 1-89)", "T3 construct": "Produced in E. coli BL21(DE3) and purified on glutathione sepharose; The thrombin linker between GST and PIN is not described; also called GST-tagged PIN; not shown: Glutathione S-transferase tag of vector pGEX-2T (Pharmacia), N-terminal", "T3 sequence (P63170 whole entry)": "as above", "assay": "competition ELISA, GST-PIN preincubated with peptide, nNOS immobilized"}, "[5]": {"molecular_target": "T4, protein inhibitor of neuronal nitric oxide synthase (PIN), produced by thrombin digestion of GST-PIN (rat, UniProt P63170 1-89)", "T4 construct": "Released from GST-PIN (vector pGEX-2T) by thrombin digestion; also called PIN protein", "T4 sequence (P63170 whole entry)": "as above", "assay": "SPR (BIAcore 2000), peptide immobilized, reference is the normal nNOS peptide"}, "[6]": {"molecular_target": "T3, GST-PIN (PIN with a glutathione …)", "assay": "competition ELISA, GST-PIN preincubated with 50 µg/ml peptide, nNOS immobilized"}, "[7]": {"molecular_target": "T4, protein inhibitor of neuronal nitric …", "assay": "SPR competition, PIN preincubated with peptide, nNOS immobilized"}}, "note": "Ends that are not written are not given here."}
{"molecule": "CCOc1ccc(N2C(=O)NC(=O)/C(=C\\c3ccc(Sc4nc5ccccc5[nH]4)o3)C2=O)cc1", "note": "[C24H18N4O5S]", "values": [{"measurement": "concentration from which insulin secretion is blocked in a dose-dependant fashion", "setting": "[1]; tested 20-100 μM", "value": "≥ 50", "unit": "µM"}, {"measurement": "reduction of the insulin response", "setting": "[1]; molecule 50 μM", "value": 36, "unit": "%"}, {"measurement": "reduction of the insulin response", "setting": "[1]; molecule 100 μM", "value": 79, "unit": "%"}]}
{"molecule": "KDTGIQVDWD [SEQ ID NO: 3]", "values": [{"measurement": "inhibition of the binding of the PIN to the nNOS", "setting": "[2]", "value": "up to 71%"}, {"measurement": "Ka (association constant) of PIN for immobilized peptide", "setting": "PIN; BIAcore, PIN 5-40 μg/ml, global analysis", "value": "1.86×10^8"}, {"measurement": "Kd", "setting": "PIN; BIAcore, PIN 5-40 μg/ml, global analysis, read-out: Kd (dissociation constant) of PIN for immobilized peptide", "value": 0.00538, "unit": "µM"}, {"measurement": "affinity of the PIN protein for the mutant peptide relative to the normal peptide", "setting": "PIN; SPR, ratio vs normal peptide", "value": "two times greater"}, {"measurement": "IC50", "setting": "[3]; SPR inhibition curves, FIG. 7D, read-out: inhibition constant (Ki: IC50)", "value": 4, "unit": "µM"}, {"measurement": "inhibition of the binding of the PIN to the nNOS", "setting": "[3]; peptide 5 μg/ml", "value": 59, "unit": "%"}, {"measurement": "inhibition of the binding of the PIN to the nNOS", "setting": "[3]; peptide 30 μg/ml", "value": 90, "unit": "%"}, {"measurement": "inhibition of the binding of the PIN to the nNOS", "setting": "[3]; peptide 40 μg/ml", "value": 91, "unit": "%"}]}
{"molecule": "CC[C@H](C)[C@H](N)C(=O)N[C@@H](CC(=O)O)C(=O)N[C@H](C(=O)NCC(=O)N[C@H](C(=O)N[C@@H](CCC(N)=O)C(=O)N[C@H](C(=O)N[C@@H](CC(=O)O)C(=O)N[C@@H](Cc1c[nH]c2ccccc12)C(=O)N[C@@H](CC(=O)O)C(=O)O)C(C)C)[C@@H](C)CC)C(C)C", "note": "[SEQ ID NO: 4]", "values": [{"measurement": "inhibition of the binding of the PIN to the nNOS", "setting": "[2]", "value": "≤ 78", "unit": "%"}, {"measurement": "inhibition of the binding of the PIN to the nNOS", "setting": "[3]; peptide 1 μg/ml", "value": 75, "unit": "%"}, {"measurement": "inhibition of the binding of the PIN to the nNOS", "setting": "[3]; peptide 10 μg/ml", "value": 98, "unit": "%"}]}
{"molecule": "KDTGIQVDWD (Synthetic 10-mer; It differs from the normal peptide by Arg to Trp at position 9)", "note": "[mutant nNOS peptide represented by sequence SEQ ID NO: 3 (Lys-Asp-Thr-Gly-Ile-Gln-Val-Asp-Trp-Asp)]", "values": [{"measurement": "IC50", "setting": "[4]", "value": 5, "unit": "µM"}, {"measurement": "fold affinity against the normal peptide", "setting": "[5]", "value": 2, "unit": "fold"}, {"measurement": "percent inhibition of PIN-nNOS binding", "setting": "[6]", "value": 71, "unit": "%"}]}
{"molecule": "KDTGIQVDRD (Made by Fmoc solid phase synthesis; also called normal peptide; normal nNOS peptide)", "note": "[normal (non-mutant) nNOS peptide Lys Asp Thr Gly Ile Gln Val Asp Arg Asp (nNOS amino acids 229-238)]", "values": [{"measurement": "IC50", "setting": "[4]", "value": 300, "unit": "µM"}, {"measurement": "percent inhibition of PIN-nNOS binding", "setting": "[6]", "value": 14, "unit": "%"}]}
{"molecule": "IDVGIQVDWD (Synthetic 10-mer)", "note": "[mutant nNOS peptide represented by sequence SEQ ID NO: 4 (Ile-Asp-Val-Gly-Ile-Gln-Val-Asp-Trp-Asp)]", "values": [{"measurement": "IC50", "setting": "[7]", "value": 0.4, "unit": "µM"}, {"measurement": "IC50", "setting": "[4]", "value": 0.5, "unit": "µM"}, {"measurement": "percent inhibition of PIN-nNOS binding", "setting": "[6]", "value": 78, "unit": "%"}]}
